Assay results published in patent publication US20090149494A1, “THERAPEUTIC USE OF IMIDAZO[1,2-a]PYRIDINE-2-CARBOXAMIDE DERIVATIVES” (SANOFI-AVENTIS, priority 2006, published 2009).

How the values were obtained:
human NOT receptor = test: Binding to the human NOT receptor by SPR (Biacore); conditions: immobilized GST-NOT (NOT-FL) and His-Thr-NOT 329-598, 3.75 to 0.1 μM, 4° C.
Description: The direct binding between compounds of the invention and the human NOT receptor was evaluated using the SPR (surface plasmon resonance) technique. In this test, the protein is immobilized covalently on the matrix and the test molecule is injected into the chamber containing the sensor chip. The signal is directly proportional to the amount of product bound to the protein. The binding tests were performed in a Biacore S51 machine (Biacore Inc., Piscataway N.J.). The entire GST-NOT protein (NOT-FL) was supplied by Invitrogen (PV3265). The domain for binding to the NOT ligand (His-Thr-NOT 329-598) was expressed and purified as described in Nature 423, 555-560. The two proteins, diluted to a concentration of 20 μg/ml in pH 5.0 acetate buffer containing 5 mM of DTT, were immobilized on a surface of carboxymethyl 5′ dextran (CM5 sensor chip, Biacore Inc.) via amine coupling according to the protocol recommended by Biacore, eluting with an HBS-N buffer (10 mM HEPES, 0.15 M NaCl, 3 mM EDTA, pH 7.4). Approximately 10 000-15 000 resonance units (R^U) of the proteins are captured on the surface of the sensor chip CM5. […] The dissociation was recorded for 5 minutes without any other surface regeneration procedure. […]

murine Nurr1 receptor = target: T1, murine Nurr1 receptor (Mus musculus, UniProt Q06219); test: In vitro activity on N2A cells (NBRE-luciferase reporter); format: cell-based; conditions: N2A-8NBRE-luciferase cells, 24 hours incubation
T1 construct: endogenously expressing the murine Nurr1 receptor; host or cells: Neuro-2A (N2A) mouse neuroblastoma cells stably transfected with 8NBRE-luciferase
T1 sequence (Q06219 whole entry): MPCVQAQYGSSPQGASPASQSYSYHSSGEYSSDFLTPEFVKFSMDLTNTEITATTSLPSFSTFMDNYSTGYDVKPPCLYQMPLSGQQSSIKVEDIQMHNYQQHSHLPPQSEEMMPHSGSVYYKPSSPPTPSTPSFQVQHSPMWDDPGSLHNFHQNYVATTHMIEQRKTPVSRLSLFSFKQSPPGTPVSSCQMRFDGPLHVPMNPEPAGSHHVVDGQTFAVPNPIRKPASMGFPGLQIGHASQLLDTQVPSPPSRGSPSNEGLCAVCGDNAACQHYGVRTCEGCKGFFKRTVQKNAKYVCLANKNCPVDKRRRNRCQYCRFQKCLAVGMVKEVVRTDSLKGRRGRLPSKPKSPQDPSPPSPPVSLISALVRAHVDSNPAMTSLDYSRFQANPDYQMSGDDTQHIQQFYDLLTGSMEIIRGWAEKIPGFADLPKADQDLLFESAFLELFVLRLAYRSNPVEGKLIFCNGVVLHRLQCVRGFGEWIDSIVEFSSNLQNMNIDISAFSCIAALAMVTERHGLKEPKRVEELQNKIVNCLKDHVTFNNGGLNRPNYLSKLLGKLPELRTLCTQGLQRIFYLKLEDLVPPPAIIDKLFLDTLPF
Description: The tests consisted in evaluating the in vitro activity of the compounds of the invention on a cell line (N2A) endogenously expressing the murine Nurr1 receptor and stably transfected with the NOT binding response element (NBRE) coupled to the luciferase reporter gene. The EC50 values are between 0.01 and 1000 nM. The tests were performed according to the procedure described hereinbelow.
The cell line Neuro-2A is obtained from a standard commercial source (ATCC). The clone Neuro-2A was obtained from a spontaneous tumor originating from a strain of albino mice A by R. J Klebe et al. This line Neuro-2A is then stably transfected with 8NBRE-luciferase. The N2A-8NBRE cells are cultured to the point of confluence in 75 cm^2 culture flasks containing DMEM supplemented with 10% fetal calf serum, 4.5 g/L of glucose and 0.4 mg/ml of geneticin. After culturing for one week, the cells are recovered with 0.25% trypsin for 30 seconds and then resuspended in DMEM without phenol red, containing 4.5 g/L of glucose and 10% Hyclone defatted serum, and placed in white, transparent-based 96-well plates. The cells are deposited at a rate of 60 000 per well in 75 μL for 24 hours before adding the products. The products are applied in 25 μL and incubated for a further 24 hours. […] The plates are then measured in a microplate luminescence counter, after having been sealed with an adhesive film. […]

| affinity (classified by maximum binding level and kinetic parameters of binding) (human NOT receptor) | EC50 (murine Nurr1 receptor) [nM] | SMILES |
| --- | --- | --- |
| moderate affinity | 5.5 | O=C(Nc1ccccc1)c1cn2ccccc2n1 [compound 1] |
|  | 17 | O=C(Nc1ccc(F)cc1)c1cn2cc(Cl)ccc2n1 [compound 2] |
